Where “and” joins values, the source holds several entries; their conditions need not be identical. Equal values may be shown once.
Key:
Details in all cases: incubation time: 72 h
[1] = system: HDQ-P1; test: normalised viability (% of control), CellTiter-Blue; higher = more viable cells (100 = DMSO, 0 = benzethonium chloride kill control)
Description: (§1)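 DSRT, CellTiter-Blue viability, 72 h incubation. Signal is normalised to DMSO and benzethonium chloride controls. Value is the normalised response at dose 1.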

[2] = system: CAL-85-1; test: as above
Description: as §1

[3] = system: MFM-223; test: as above
Description: as §1

[4] = system: HCC1937; test: as above
Description: as §1

[5] = system: CAL-120; test: as above
Description: as §1

[6] = system: DU-4475; test: as above
Description: as §1

[7] = system: MDA-MB-468; test: as above
Description: as §1

[8] = system: Hs578T; test: as above
Description: as §1

[9] = system: MDA-MB-436; test: as above
Description: as §1

[10] = system: CAL-148; test: as above
Description: as §1

[11] = system: BT-474; test: as above
Description: as §1

[12] = system: CAL-51; test: as above
Description: as §1

[13] = system: HCC1599; test: as above
Description: as §1

[14] = system: BT-549; test: as above
Description: as §1

[15] = system: HCC1143; test: as above
Description: as §1

[16] = system: SK-BR-3; test: as above
Description: as §1

[17] = system: MDA-MB-453; test: as above
Description: as §1

[18] = system: MDA-MB-231; test: as above
Description: as §1

[19] = system: MFM-223; test: normalised viability (% of control), CellTiter-Blue; higher = more viable cells (about 100 = DMSO control)
Summary of the method: (§2)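 Normalised viability is given for a single listed concentration of the series. In 384-well plates, breast cancer cell lines were incubated 72 h with compound, then read with CellTiter-Blue (2 h, 37 °C) at 560/590 nm. Per-plate scaling set vehicle to 100 and a positive kill control to 0, with Z'-factor quality control.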

[20] = system: DU-4475; test: as above
Summary of the method: as §2

[21] = system: BT-474; test: as above
Summary of the method: as §2

[22] = system: BT-549; test: as above
Summary of the method: as §2

[23] = system: MDA-MB-453; test: as above
Summary of the method: as §2

Cc1c(CN2CCN(C(=O)[C@H](C)O)CC2)sc2c(N3CCOCC3)nc(-c3cnc(N)nc3)nc12 [GDC-0980]
normalised viability ([1]; 1 nM): 95.9%
normalised viability ([2]; 1 nM): 83.5%
normalised viability ([3]; 1 nM): 96.8%
normalised viability ([4]; 1 nM): 88.1%
normalised viability ([5]; 1 nM): 96.3%
normalised viability ([6]; 1 nM): 104%
normalised viability ([7]; 1 nM): 99.6%
normalised viability ([8]; 1 nM): 102%
normalised viability ([9]; 1 nM): 84.5%
normalised viability ([10]; 1 nM): 106%
normalised viability ([11]; 1 nM): 103%
normalised viability ([12]; 1 nM): 101%
normalised viability ([13]; 1 nM): 95.5%
normalised viability ([14]; 1 nM): 91.7%
normalised viability ([15]; 1 nM): 94.9%
normalised viability ([16]; 1 nM): 92.2%
normalised viability ([17]; 1 nM): 96.5%
normalised viability ([18]; 1 nM): 96.6%
normalised viability ([19]; 100 nM): 65.4%
normalised viability ([20]; 10 nM): 92.7%
normalised viability ([21]; 100 nM): 90.2%
normalised viability ([22]; 100 nM): 81.9%
normalised viability ([23]; 10 nM): 96.1%

Nc1cccc2c1CN(C1CCC(=O)NC1=O)C2=O (centres undefined) [Lenalidomide]
normalised viability ([1]; 1 nM): 86.6% and 103%
normalised viability ([2]; 1 nM): 79.2% and 80.7%
normalised viability ([3]; 1 nM): 89.4% and 94.1%
normalised viability ([4]; 1 nM): 90.1% and 78%
normalised viability ([5]; 1 nM): 76.8% and 81.8%
normalised viability ([6]; 1 nM): 99% and 102%
normalised viability ([7]; 1 nM): 99.6% and 98.9%
normalised viability ([8]; 1 nM): 97.1% and 106%
normalised viability ([9]; 1 nM): 97.6% and 82.2%
normalised viability ([10]; 1 nM): 92.4% and 102%
normalised viability ([11]; 1 nM): 93.9% and 73.5%
normalised viability ([12]; 1 nM): 104% and 105%
normalised viability ([13]; 1 nM): 92.1% and 98.5%
normalised viability ([14]; 1 nM): 108% and 115%
normalised viability ([15]; 1 nM): 85.5% and 80.6%
normalised viability ([16]; 1 nM): 94.7% and 87.4%
normalised viability ([17]; 1 nM): 87.5% and 104%
normalised viability ([18]; 1 nM): 85.2% and 82.6%
normalised viability ([19]; 100 nM): 91.3% and 90.2%
normalised viability ([20]; 10 nM): 103% and 112%
normalised viability ([21]; 100 nM): 115% and 94.3%
normalised viability ([22]; 100 nM): 92.2% and 101%
normalised viability ([23]; 10 nM): 93% and 103%

C[C@]12O[C@H](C[C@]1(O)CO)n1c3ccccc3c3c4c(c5c6ccccc6n2c5c31)CNC4=O [Lestaurtinib]
normalised viability ([1]; 0.1 nM): 113%
normalised viability ([2]; 0.1 nM): 100%
normalised viability ([3]; 0.1 nM): 107%
normalised viability ([4]; 0.1 nM): 96.4%
normalised viability ([5]; 0.1 nM): 101%
normalised viability ([6]; 0.1 nM): 110%
normalised viability ([7]; 0.1 nM): 126%
normalised viability ([8]; 0.1 nM): 118%
normalised viability ([9]; 0.1 nM): 126%
normalised viability ([10]; 0.1 nM): 118%
normalised viability ([11]; 0.1 nM): 100%
normalised viability ([12]; 0.1 nM): 115%
normalised viability ([13]; 0.1 nM): 109%
normalised viability ([14]; 0.1 nM): 120%
normalised viability ([15]; 0.1 nM): 107%
normalised viability ([16]; 0.1 nM): 97.7%
normalised viability ([17]; 0.1 nM): 113%
normalised viability ([18]; 0.1 nM): 115%
normalised viability ([19]; 10 nM): 107%
normalised viability ([20]; 1 nM): 109%
normalised viability ([21]; 10 nM): 127%
normalised viability ([22]; 10 nM): 106%
normalised viability ([23]; 1 nM): 98.7%

O=C1c2c(O)ccc(O)c2C(=O)c2c(NCCNCCO)ccc(NCCNCCO)c21 [Mitoxantrone]
normalised viability ([1]; 0.1 nM): 101%
normalised viability ([2]; 0.1 nM): 80.5%
normalised viability ([3]; 0.1 nM): 84.2%
normalised viability ([4]; 0.1 nM): 92.5%
normalised viability ([5]; 0.1 nM): 74.6%
normalised viability ([6]; 0.1 nM): 102%
normalised viability ([7]; 0.1 nM): 90.7%
normalised viability ([8]; 0.1 nM): 93.6%
normalised viability ([9]; 0.1 nM): 121%
normalised viability ([10]; 0.1 nM): 108%
normalised viability ([11]; 0.1 nM): 75.9%
normalised viability ([12]; 0.1 nM): 109%
normalised viability ([13]; 0.1 nM): 92.1%
normalised viability ([14]; 0.1 nM): 90.5%
normalised viability ([15]; 0.1 nM): 79.2%
normalised viability ([16]; 0.1 nM): 108%
normalised viability ([17]; 0.1 nM): 90.6%
normalised viability ([18]; 0.1 nM): 87.4%
normalised viability ([19]; 10 nM): 85.9%
normalised viability ([20]; 1 nM): 102%
normalised viability ([21]; 10 nM): 98.2%
normalised viability ([22]; 10 nM): 87.7%
normalised viability ([23]; 1 nM): 84.8%

Nc1ccccc1NC(=O)c1ccc(CNc2nccc(-c3cccnc3)n2)cc1 [Mocetinostat]
normalised viability ([1]; 1 nM): 84.2%
normalised viability ([2]; 1 nM): 91.8%
normalised viability ([3]; 1 nM): 91.2%
normalised viability ([4]; 1 nM): 90.8%
normalised viability ([5]; 1 nM): 81.7%
normalised viability ([6]; 1 nM): 91.3%
normalised viability ([7]; 1 nM): 92%
normalised viability ([8]; 1 nM): 113%
normalised viability ([9]; 1 nM): 99.2%
normalised viability ([10]; 1 nM): 107%
normalised viability ([11]; 1 nM): 107%
normalised viability ([12]; 1 nM): 93.6%
normalised viability ([13]; 1 nM): 92.2%
normalised viability ([14]; 1 nM): 117%
normalised viability ([15]; 1 nM): 91.1%
normalised viability ([16]; 1 nM): 93%
normalised viability ([17]; 1 nM): 92.5%
normalised viability ([18]; 1 nM): 110%
normalised viability ([19]; 100 nM): 80.7%
normalised viability ([20]; 10 nM): 91%
normalised viability ([21]; 100 nM): 95.1%
normalised viability ([22]; 100 nM): 81.6%
normalised viability ([23]; 10 nM): 94.2%

Cc1ccc(Nc2nccc(N(C)c3ccc4c(C)n(C)nc4c3)n2)cc1S(N)(=O)=O [Pazopanib]
normalised viability ([1]; 1 nM): 72.8%
normalised viability ([2]; 1 nM): 93.6%
normalised viability ([3]; 1 nM): 90%
normalised viability ([4]; 1 nM): 77.9%
normalised viability ([5]; 1 nM): 78.5%
normalised viability ([6]; 1 nM): 98.9%
normalised viability ([7]; 1 nM): 106%
normalised viability ([8]; 1 nM): 94.8%
normalised viability ([9]; 1 nM): 95.8%
normalised viability ([10]; 1 nM): 89.3%
normalised viability ([11]; 1 nM): 93.2%
normalised viability ([12]; 1 nM): 103%
normalised viability ([13]; 1 nM): 103%
normalised viability ([14]; 1 nM): 110%
normalised viability ([15]; 1 nM): 87.1%
normalised viability ([16]; 1 nM): 105%
normalised viability ([17]; 1 nM): 106%
normalised viability ([18]; 1 nM): 97.7%
normalised viability ([19]; 100 nM): 71.7%
normalised viability ([20]; 10 nM): 103%
normalised viability ([21]; 100 nM): 99.7%
normalised viability ([22]; 100 nM): 96.9%
normalised viability ([23]; 10 nM): 100%

O=C(CCBr)N1CCN(C(=O)CCBr)CC1 [Pipobroman]
normalised viability ([1]; 1 nM): 99.3%
normalised viability ([2]; 1 nM): 96%
normalised viability ([3]; 1 nM): 82.8%
normalised viability ([4]; 1 nM): 87.4%
normalised viability ([5]; 1 nM): 89.1%
normalised viability ([6]; 1 nM): 111%
normalised viability ([7]; 1 nM): 95%
normalised viability ([8]; 1 nM): 95.3%
normalised viability ([9]; 1 nM): 107%
normalised viability ([10]; 1 nM): 115%
normalised viability ([11]; 1 nM): 98.9%
normalised viability ([12]; 1 nM): 112%
normalised viability ([13]; 1 nM): 103%
normalised viability ([14]; 1 nM): 83.2%
normalised viability ([15]; 1 nM): 94.7%
normalised viability ([16]; 1 nM): 92.1%
normalised viability ([17]; 1 nM): 108%
normalised viability ([18]; 1 nM): 97.8%
normalised viability ([19]; 100 nM): 98.8%
normalised viability ([20]; 10 nM): 103%
normalised viability ([21]; 100 nM): 119%
normalised viability ([22]; 100 nM): 86.4%
normalised viability ([23]; 10 nM): 102%

c1cc(CN2CCCNCCNCCCNCC2)ccc1CN1CCCNCCNCCCNCC1 [Plerixafor]
normalised viability ([1]; 0.25 nM): 104%
normalised viability ([2]; 0.25 nM): 84.2%
normalised viability ([3]; 0.25 nM): 99%
normalised viability ([4]; 0.25 nM): 82.5%
normalised viability ([5]; 0.25 nM): 90%
normalised viability ([6]; 0.25 nM): 105%
normalised viability ([7]; 0.25 nM): 96.5%
normalised viability ([8]; 0.25 nM): 104%
normalised viability ([9]; 0.25 nM): 110%
normalised viability ([10]; 0.25 nM): 87.3%
normalised viability ([11]; 0.25 nM): 84%
normalised viability ([12]; 0.25 nM): 103%
normalised viability ([13]; 0.25 nM): 107%
normalised viability ([14]; 0.25 nM): 86.8%
normalised viability ([15]; 0.25 nM): 90.9%
normalised viability ([16]; 0.25 nM): 91.5%
normalised viability ([17]; 0.25 nM): 129%
normalised viability ([18]; 0.25 nM): 93.8%
normalised viability ([19]; 25 nM): 92.6%
normalised viability ([20]; 2.5 nM): 93.1%
normalised viability ([21]; 25 nM): 108%
normalised viability ([22]; 25 nM): 117%
normalised viability ([23]; 2.5 nM): 106%
